Laboratory results taken from patent US20230365583A1, “FUSED TRICYCLIC PYRIMIDINE-THIENO-PYRIDINE SMALL MOLECULE INHIBITORS OF UBIQUITIN-SPECIFIC PROTEASE 28” (Dana-Farber Cancer Institute, Inc., priority 2020, published 2023).

Experiments:
USP28 [1] = target: T1, USP28 (Homo sapiens (Human), UniProt Q96RU2); experiment: Ubiquitin-Rhodamine110 assay; type: biochemical; conditions: USP28 at 1 nM; 30 minutes pre-incubation at room temperature; Ubiquitin-Rho110 substrate 125 nM
Description: USP28 (at 1 nM) was pre-incubated with different concentrations of inhibitors or DMSO as a control in 50 mM Tris pH 8, 50 mM NaCl, 0.002% Tween-20, 5 mM DTT. Compounds and protein were incubated for 30 minutes at room temperature prior to the addition of Ubiquitin-Rho110 (Boston Biochem) substrate for a final concentration of 125 nM. The initial rate of the reaction was measured by collecting fluorescence data at one-minute interval over 30-minute period using a Clariostar® fluorescence plate reader at excitation and emission wavelength of 485 nm and 535 nm, respectively. The calculated initial rate values were plotted against inhibitor concentrations to determine IC50s. All the experimental data were plotted using GraphPad Prism®.

USP28 [2] = target: T1, USP28; experiment: Competitive activity-based protein profiling (Ub-VME labeling, Western blot) in K562 cell lysate; type: binding; conditions: K562 cells lysed, treated with compound for 1 h followed by incubation with Ub-VME; Western blot (FIG. 2)
Description: K562 cells were lysed and treated with indicated concentrations of compound 1 for 1 h followed by incubation with Ub-VME. Ub-VME covalently modifies USP28, resulting in higher MW band observed by Western blot.
Cells were pelleted, washed with PBS buffer, lysed on ice (20 mM Tris pH 8, 150 mM NaCl, 1% NP-40, 10% glycerol, 1 mM TCEP, phosphatase inhibitor cocktails (Sigma P5726 and Calbiochem 524624), and protease inhibitors (pepstatin, leupeptin, PMSF, and aprotinin), and clarified by centrifugation. Protein content was quantified by BCA and diluted to 2 mg/mL in lysis buffer. Compounds were added at desired concentrations and incubated at room temperature for 30 minutes. Samples were then supplemented with 2 uM HA-Ub-VS and incubated at room temperature with shaking for 15 minutes. Reactions were quenched with 4×LDS sample buffer (Thermo Fisher B0007) supplemented with 10% BME, vortexed vigorously, and heated to 95° C. for 5 minutes. Samples were resolved by SDS-PAGE and analyzed by Western blot with the indicated antibodies.

T1 sequence (Q96RU2 whole entry): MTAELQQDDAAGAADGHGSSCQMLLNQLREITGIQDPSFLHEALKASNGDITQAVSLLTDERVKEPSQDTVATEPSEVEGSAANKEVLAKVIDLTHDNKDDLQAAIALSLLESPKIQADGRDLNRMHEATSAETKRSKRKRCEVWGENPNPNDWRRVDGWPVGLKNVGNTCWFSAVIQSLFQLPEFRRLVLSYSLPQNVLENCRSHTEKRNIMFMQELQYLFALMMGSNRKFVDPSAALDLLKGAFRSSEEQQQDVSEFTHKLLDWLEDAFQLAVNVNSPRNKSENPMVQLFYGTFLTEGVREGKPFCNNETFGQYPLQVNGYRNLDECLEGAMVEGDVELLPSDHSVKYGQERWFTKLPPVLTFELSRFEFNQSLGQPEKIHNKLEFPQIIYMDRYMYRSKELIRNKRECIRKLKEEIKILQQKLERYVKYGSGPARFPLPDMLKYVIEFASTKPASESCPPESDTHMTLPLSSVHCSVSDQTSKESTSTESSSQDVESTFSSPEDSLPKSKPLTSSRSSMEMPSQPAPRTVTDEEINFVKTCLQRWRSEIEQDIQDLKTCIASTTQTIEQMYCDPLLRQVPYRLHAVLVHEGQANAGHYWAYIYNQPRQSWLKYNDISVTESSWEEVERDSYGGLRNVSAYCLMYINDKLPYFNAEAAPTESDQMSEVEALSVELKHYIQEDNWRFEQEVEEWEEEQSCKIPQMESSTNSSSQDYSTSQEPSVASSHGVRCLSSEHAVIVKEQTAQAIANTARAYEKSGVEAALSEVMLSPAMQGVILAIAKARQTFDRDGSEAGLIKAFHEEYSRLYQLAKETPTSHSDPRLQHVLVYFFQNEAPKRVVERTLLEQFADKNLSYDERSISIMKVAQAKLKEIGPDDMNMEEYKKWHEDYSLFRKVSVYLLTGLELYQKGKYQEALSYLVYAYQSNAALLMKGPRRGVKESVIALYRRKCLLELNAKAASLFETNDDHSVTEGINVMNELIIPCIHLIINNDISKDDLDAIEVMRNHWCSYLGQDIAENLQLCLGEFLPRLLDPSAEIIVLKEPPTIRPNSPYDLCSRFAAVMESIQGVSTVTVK

SMILES	IC50 (USP28 [1]) [µM]	Target engagement: labeling of USP28 by covalent Ub-VME probe (USP28 [2])
CCCc1nc2sc3c(NCCc4ccc(OC)c(OC)c4)ncnc3c2c2c1CCC2 [Compound 1]	< 1	prevents labeling of USP28 by the covalent Ub-VME probe
CCCc1nc2sc3c(NCc4ccco4)ncnc3c2c2c1CCC2 [Compound 2]	< 1	
CCCc1nc2sc3c(NC4CCCCC4)ncnc3c2c2c1CCC2 [Compound 3]	10 to 100	
CCCc1nc2sc3c(NCCc4ccc(Cl)c(Cl)c4)ncnc3c2c2c1CCC2 [Compound 4]	10 to 100	
CCCc1nc2sc3c(NCc4ccc(Cl)c(Cl)c4)ncnc3c2c2c1CCC2 [Compound 5]	> 100	
COc1ccc(CCNc2ncnc3c2sc2ncccc23)cc1OC [Compound 6]	1 to 10	
CCCc1nc2sc3c(N(C)CCc4ccc(OC)c(OC)c4)ncnc3c2c2c1CCC2 [Compound 7]	10 to 100	
COc1ccc(CCNc2ncnc3c2sc2ncc4c(c23)CCC4)cc1OC [Compound 8]	1 to 10	
CCCc1nc2sc3c(NCc4ccc(OC)c(OC)c4)ncnc3c2c2c1CCC2 [Compound 9]	< 1	
CCCc1nc2sc3c(NCCc4ccc(OC)cc4)ncnc3c2c2c1CCC2 [Compound 10]	< 1	
CCCc1nc2sc3c(NCCc4cccc(OC)c4)ncnc3c2c2c1CCC2 [Compound 11]	10 to 100	
CCCc1nc2sc3c(NCCc4ccc(N(C)C)cc4)ncnc3c2c2c1CCC2 [Compound 12]	< 1	
CCCc1nc2sc3c(NCCc4ccc5c(c4)OCCO5)ncnc3c2c2c1CCC2 [Compound 13]	1 to 10	
CCCc1nc2sc3c(NCCCc4ccc(OC)c(OC)c4)ncnc3c2c2c1CCC2 [Compound 14]	10 to 100	
CCCc1nc2sc3c(NCCc4c[nH]c5ccccc45)ncnc3c2c2c1CCC2 [Compound 15]	1 to 10	
CCCc1nc2sc3c(NCCc4cc(OC)c(OC)c(OC)c4)ncnc3c2c2c1CCC2 [Compound 16]	1 to 10	
CCCc1nc2sc3c(NCCc4cccs4)ncnc3c2c2c1CCC2 [Compound 17]	< 1	
CCCc1nc2sc(C(=O)NCCc3ccc(OC)c(OC)c3)c(N)c2c2c1CCC2 [Compound 18]	< 1	
CCCc1nc2sc3c(NCCc4ccc(N5CCNCC5)cc4)ncnc3c2c2c1CCC2 [Compound 19]	< 1	
COc1ccc(CCNC(=O)c2sc3nc(C)ccc3c2N)cc1OC [Compound 20]	< 1	
CCCc1nc2sc(C(=O)NCCc3ccc(N4CCNCC4)cc3)c(N)c2c2c1CCC2 [Compound 21]	< 1	
Cc1ccc2c(N)c(C(=O)NCCc3ccc(C4CCNCC4)cc3)sc2n1 [Compound 22]	< 1	
Cc1ccc2c(N)c(C(=O)NCCc3ccc(C4CC5CCC(C4)N5)cc3)sc2n1 (centres unmarked) [Compound 23]	< 1	
Cc1ccc2c(N)c(C(=O)NCCc3ccc(C4CC5CCC(C4)N5C(=O)OC(C)(C)C)cc3)sc2n1 (centres unmarked) [Compound 24]	< 1	
COc1ccc(CCNC(=O)c2sc3nc(C)c4c(c3c2N)CCC4)cc1OC [Compound 25]	< 1	

SMILES	IC50 (USP28 [1]) [µM]	Target engagement: labeling of USP28 by covalent Ub-VME probe (USP28 [2])
COc1ccc(CCNC(=O)c2sc3nc4c(c(C)c3c2N)CCC4)cc1OC [Compound 26]	< 1	
CCCc1nc2oc(C(=O)NCCc3ccc(OC)c(OC)c3)c(N)c2c2c1CCC2 [Compound 27]	< 1	
CCCc1ccc2c(N)c(C(=O)NCCc3ccc(OC)c(OC)c3)sc2n1 [Compound 28]	< 1	
CCCc1nc2sc(C(=O)NCCc3ccc(OC)c(OC)c3)c(NC(C)=O)c2c2c1CCC2 [Compound 29]	< 1	
Cc1ccc2c(N)c(C(=O)NCCc3ccc(N4CCNCC4)cc3)sc2n1 [Compound 30]	< 1	
Cc1ccc2c(N)c(C(=O)NCCc3ccc(N4CCN(C(=O)OC(C)(C)C)CC4)cc3)sc2n1 [Compound 31]	< 1	
CCCc1nc2sc(C(=O)NCCc3ccc(O)c(O)c3)c(N)c2c2c1CCC2 [Compound 32]	< 1	
CCCc1nc2sc(C(=O)NCCc3ccc(OC)c(OC)c3)c(NCc3ccccc3)c2c2c1CCC2 [Compound 33]	< 1	
CCCc1nc2sc(C(=O)NCCc3ccc(OC)c(OC)c3)c(N)c2cc1C(=O)N(C)C [Compound 35]	< 1	
CCCc1nc2sc(C(=O)NCC(C)c3ccc(OC)c(OC)c3)c(N)c2c2c1CCC2 (centres unmarked) [Compound 36]	< 1	
CCCc1nc2sc(C(=O)NC(C)Cc3ccc(OC)c(OC)c3)c(N)c2c2c1CCC2 (centres unmarked) [Compound 37]	< 1	
CCCc1ccc2c(n1)sc1c(NCCc3ccc(OC)c(OC)c3)ncnc12 [Compound 38]	< 1	
CCCc1ccc2c(n1)sc1c(NCCc3ccc4c(c3)OCCO4)ncnc12 [Compound 39]	< 1	
CCCc1nc2sc(C(=O)NC[C@H](C)c3ccccc3)c(N)c2c2c1CCC2 [Compound 40]	< 1	
CCCc1nc2sc(C(=O)NC[C@@H](C)c3ccccc3)c(N)c2c2c1CCC2 [Compound 41]	< 1	
CCCc1ccc2c(n1)sc1c(NCCc3ccc(N(C)C)cc3)ncnc12 [Compound 42]	< 1	
CCCc1ccc2c(n1)sc1c(NCC(C)c3ccc(OC)c(OC)c3)ncnc12 (centres unmarked) [Compound 43]	< 1	
CCCc1nc2sc3c(OCCc4ccc(OC)c(OC)c4)ncnc3c2c2c1CCC2 [Compound 44]	1 to 10	
CCCc1nc2sc3c(NCCc4ccc(OC)c(OC)c4)ncnc3c2c2c1CCCC2 [Compound 45]	< 1	
CCCc1nc2sc(C(=O)NCCc3ccc(OC)c(OC)c3)c(N)c2c2c1CCCC2 [Compound 46]	< 1	
CCCc1nc2sc(C(=O)N[C@@H](C)Cc3ccc(OC)cc3)c(N)c2c2c1CCC2 [Compound 47]	< 1	
CCCCCc1nc2sc3c(NCCc4ccc(OC)c(OC)c4)ncnc3c2c2c1CCC2 [Compound 48]	< 1	
CCCCCc1nc2sc(C(=O)NCCc3ccc(OC)c(OC)c3)c(N)c2c2c1CCC2 [Compound 49]	< 1	
CCCc1nc2sc(C(=O)N[C@H](C)Cc3ccc(OC)cc3)c(N)c2c2c1CCC2 [Compound 50]	< 1	
